Data set [1] addresses T1, Priess (DR4Dw4: DRA1*0101 DRB1*0401) cells (Homo sapiens, UniProt P01903+P01911, A100K/A169T/F76Y/I96L/K127E/L162R/M171V/N62H/P40V/Q125Y/R42H/S133A/S149N/S66Y/V115G/V209L/W38E).
T1 construct: MHC II Proteins Expressed on PRIESS and LG2 Cells; endogenous in cells; host or cells: Priess cells
Kind of data set: Competitive binding to MHC II proteins expressed on Priess cells. The format is cell-based. In a few lines: (§1)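 LG2 or Priess cells incubated 4 h at 37° C, 6% CO2 in 1% FCS with 10-fold compound dilutions (series 16 nM-1615 μM) and biotinylated-detectable indicator peptide (16 μM solution added). Lysates captured 2 h at 4° C; bound peptide detected via europium-streptavidin time-resolved fluorescence (ex 340, em 613 nm).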

The target of data set [2] is Cathepsin D (EC 3.4.23.5 from bovine spleen) (Bos taurus, UniProt P80209).
The nature of data set [3]: Stability of compounds in mouse blood plasma. Type of data set: in vitro ADME. Summed up:
(§2)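 Compounds at 5 μM final in rat, mouse or human plasma, incubated at 37 °C and sampled at 0, 6 and 24 h. Proteins precipitated with acetonitrile and the supernatant dried and reconstituted in 50% acetonitrile/0.1% TFA. PBS controls run for unstable compounds.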

Data set [4] deals with T2, LG2 (DR1: DRA1*0101 DRB1*0101) cells (Homo sapiens, UniProt P01903+P01911, A100R/D57E/F55L/F60I/F76Y/I96L/L162R/M171V/P40L/Q125E/R42F/V115G/Y59C).
T2 construct: MHC II Proteins Expressed on PRIESS and LG2 Cells; endogenous in cells; host or cells: LG2 cells
Kind of data set: Competitive binding to MHC II proteins expressed on LG2 cells. To be noted: for IC50: Cell binding IC50 (uM) LG2 (0101), LG2 (0101). The format is cell-based. Summed up: as §1

A short description of data set [5]: Stability of compounds in human blood plasma. The format is in vitro ADME. Summed up:
as §2

Data set [6] in a line: Stability of compounds in rat blood plasma. Type of data set: in vitro ADME. In a few lines:
as §2

Values joined by “and” are separate entries in the source; they are usually repeats but may differ in a detail not shown here. Identical values can stand only once. Like-named read-outs stand apart in the source and are kept apart here. Numbered stars: 1 amine (or outer) side, 2 acyl side, 3 side chain; on linkers, the order of the positions; unused ones are H or OH. Square brackets hold non-standard residues; d marks the D form. Peptide text beside a SMILES is read from it. * marks the point of attachment. ξ: configuration not given here. Gly(1-amidinopiperidin-4-yl) = N=C(N)N1CCC([C@H](N)C(=O)O)CC1; X1 = CC(C)c1oc([C@H](CO)N[*:1])nc1C(=O)[*:2]; Pro(3R-Ph) = O=C(O)[C@H]1NCC[C@@H]1c1ccccc1; Met(O) = CS(=O)CC[C@H](N)C(=O)O; Tic = O=C(O)[C@@H]1Cc2ccccc2CN1; Cha = N[C@@H](CC1CCCCC1)C(=O)O; NHPhenethyl = c1ccc(CCN*)cc1; ξDisc = O=C(O)C1NCc2ccccc21; Nle = CCCC[C@H](N)C(=O)O; NHBn = c1ccc(CN*)cc1

What is called IC50 is the point on the concentration scale where inhibition reaches its midpoint.

Molecule `CSCC[C@H](NC(=O)C1c2ccccc2CN1C(=O)[C@@H](NC(=O)[C@H](CC1CCCCC1)NC(C)=O)C1CCN(C(=N)N)CC1)C(=O)N1CC[C@H](c2ccccc2)[C@H]1C(=O)N[C@@H](CO)c1nc(C(=O)N(C)C)c(C(C)C)o1` (stereo partly drawn) [Compound P41-1, Ac-Cha-Gpg-Disc-Met-βPhPro-[S(oxaz)L]-NMe2] (Ac-[Cha][Gly(1-amidinopiperidin-4-yl)][ξDisc]M[Pro(3R-Ph)][X1]-NMe2) registered a half-inhibitory concentration (IC50) in data set [1] of 3.7 µM. The “Stability (Arbitrary units) Cath D 4 h” value in data set [2] is 103 Arbitrary units. Also, in data set [3], the “Stability (Arbitrary units) Mouse 6 h” value was determined as 100 Arbitrary units and the “Stability (Arbitrary units) Mouse 24 h” value is recorded as 111 Arbitrary units. This molecule registered an IC50 in data set [4] of 3.8 µM. In data set [5], the “Stability (Arbitrary units) Human 6 h” value stood at 59 Arbitrary units and the “Stability (Arbitrary units) Human 24 h” value turned out to be 115 Arbitrary units. In addition, the “Stability (Arbitrary units) Rat 6 h” value in data set [6] was 91 Arbitrary units. Also, the “Stability (Arbitrary units) Rat 24 h” value in data set [6] (rat plasma, 24 h) is given as 103 Arbitrary units.

`CC(=O)N[C@@H](CC1CCCCC1)C(=O)N[C@H](C(=O)N1Cc2ccccc2C[C@H]1C(=O)N[C@@H](CC[S+](C)[O-])C(=O)N1CC[C@H](c2ccccc2)[C@H]1C(=O)N[C@@H](CO)c1nc(C(=O)N(C)C)c(C(C)C)o1)C1CCN(C(=N)N)CC1` (stereo partly drawn) [Compound P47, Ac-Cha-Gpg-Tic-Met(O)-βPhPro-[S(oxaz)L]-NMe2] (Ac-[Cha][Gly(1-amidinopiperidin-4-yl)][Tic][Met(O)][Pro(3R-Ph)][X1]-NMe2): in data set [1], the IC50 came to 6.9 µM. Besides, the “Stability (Arbitrary units) Cath D 4 h” value in data set [2] is 99 Arbitrary units. In data set [3], the “Stability (Arbitrary units) Mouse 6 h” value came out at 126 Arbitrary units and the “Stability (Arbitrary units) Mouse 24 h” value is reported as 111 Arbitrary units. The half-maximal inhibitory concentration (IC50) in data set [4] came to 4.6 µM. The “binding to MHC class II protein expressed on the surface of LG2 cells” value in data set [4] (compared to the Arg-containing equivalent) is “Improved binding”. For the same molecule, in data set [5], the “Stability (Arbitrary units) Human 6 h” value stood at 126 Arbitrary units and the “Stability (Arbitrary units) Human 24 h” value was found to be 140 Arbitrary units. In data set [6], the “Stability (Arbitrary units) Rat 6 h” value amounted to 116 Arbitrary units and the “Stability (Arbitrary units) Rat 24 h” value is listed as 103 Arbitrary units.

`CCCC[C@H](NC(=O)[C@@H]1Cc2ccccc2CN1C(=O)[C@@H](NC(=O)[C@H](CC1CCCCC1)NC(C)=O)C1CCN(C(=N)N)CC1)C(=O)N1CC[C@H](c2ccccc2)[C@H]1C(=O)N[C@@H](CO)c1nc(C(=O)N(C)C)c(C(C)C)o1` [Compound P53, Ac-Cha-Gpg-Tic-Nle-βPhPro-[S(oxaz)L]-NMe2] (Ac-[Cha][Gly(1-amidinopiperidin-4-yl)][Tic][Nle][Pro(3R-Ph)][X1]-NMe2) registered a concentration for half-maximal inhibition (IC50) in data set [1] of 3 µM. Besides, the “Stability (Arbitrary units) Cath D 4 h” value in data set [2] is listed as 99 Arbitrary units. In data set [3], the “Stability (Arbitrary units) Mouse 6 h” value came out at 117 Arbitrary units and the “Stability (Arbitrary units) Mouse 24 h” value amounted to 115 Arbitrary units. The same molecule came in with an IC50 in data set [4] of 3.5 µM. Moreover, in data set [5], the “Stability (Arbitrary units) Human 6 h” value was determined as 110 Arbitrary units and the “Stability (Arbitrary units) Human 24 h” value was 122 Arbitrary units. Besides, in data set [6], the “Stability (Arbitrary units) Rat 6 h” value turned out to be 114 Arbitrary units and the “Stability (Arbitrary units) Rat 24 h” value amounted to 108 Arbitrary units.

For the molecule `CSCC[C@H](NC(=O)[C@@H]1Cc2ccccc2CN1C(=O)[C@@H](NC(=O)[C@H](CC1CCCCC1)NC(C)=O)C1CCN(C(=N)N)CC1)C(=O)N1CC[C@H](c2ccccc2)[C@H]1C(=O)N[C@@H](CO)c1nc(C(=O)N(C)C)c(C(C)C)o1` [Compound P60, Ac-Cha-Gpg-Tic-Met-βPhPro-[S(oxaz)L]-NMe2] (Ac-[Cha][Gly(1-amidinopiperidin-4-yl)][Tic]M[Pro(3R-Ph)][X1]-NMe2), the IC50 in data set [1] came out at 2.1 µM. Besides, in data set [2], the “Stability (Arbitrary units) Cath D 4 h” value was found to be 108 Arbitrary units. In data set [3], the “Stability (Arbitrary units) Mouse 6 h” value was 111 Arbitrary units and the “Stability (Arbitrary units) Mouse 24 h” value is given as 95 Arbitrary units. In addition, the IC50 in data set [4] was found to be 1.5 µM. For the same molecule, the “Stability (Arbitrary units) Human 24 h” value in data set [5] was determined as 120 Arbitrary units. In data set [6], the “Stability (Arbitrary units) Rat 6 h” value came to 134 Arbitrary units and the “Stability (Arbitrary units) Rat 24 h” value is listed as 124 Arbitrary units.

As for `CSCC[C@H](NC(=O)C1c2ccccc2CN1C(=O)[C@@H](NC(=O)[C@H](CC1CCCCC1)NC(C)=O)C1CCN(C(=N)N)CC1)C(N)=O` (stereo partly drawn) [Compound P66-1, Ac-Cha-Gpg-Disc-Met-NH2] (Ac-[Cha][Gly(1-amidinopiperidin-4-yl)][ξDisc]M-NH2), in data set [1], the half-maximal inhibitory concentration (IC50) came out at 7.8 µM. Further, the “Stability (Arbitrary units) Cath D 4 h” value in data set [2] is given as 101 Arbitrary units. In addition, in data set [3], the “Stability (Arbitrary units) Mouse 6 h” value is reported as 115 Arbitrary units and the “Stability (Arbitrary units) Mouse 24 h” value turned out to be 112 Arbitrary units. In data set [4], this molecule registered an IC50 of 6 µM. Further, in data set [5], the “Stability (Arbitrary units) Human 6 h” value is on record as 103 Arbitrary units and the “Stability (Arbitrary units) Human 24 h” value was determined as 87 Arbitrary units. Moreover, in data set [6], the “Stability (Arbitrary units) Rat 6 h” value is 138 Arbitrary units and the “Stability (Arbitrary units) Rat 24 h” value is reported as 81 Arbitrary units.

For the molecule `CCCC[C@H](NC(=O)[C@@H]1Cc2ccccc2CN1C(=O)[C@@H](NC(=O)[C@H](CC1CCCCC1)NC(C)=O)C1CCN(C(=N)N)CC1)C(=O)NCc1ccccc1` [Compound P68, Ac-Cha-Gpg-Tic-Nle-N(H)Bn] (Ac-[Cha][Gly(1-amidinopiperidin-4-yl)][Tic][Nle]-NHBn), the half-inhibitory concentration (IC50) in data set [1] amounted to 12 µM. In addition, in data set [2], the “Stability (Arbitrary units) Cath D 4 h” value worked out at 105 Arbitrary units. Also, in data set [3], the “Stability (Arbitrary units) Mouse 6 h” value is 49 Arbitrary units and the “Stability (Arbitrary units) Mouse 24 h” value was 13 Arbitrary units. The same molecule registered an IC50 in data set [4] of 7.2 µM. Besides, in data set [5], the “Stability (Arbitrary units) Human 6 h” value is given as 85 Arbitrary units and the “Stability (Arbitrary units) Human 24 h” value is recorded as 39 Arbitrary units. In addition, in data set [6], the “Stability (Arbitrary units) Rat 6 h” value is 7 Arbitrary units and the “Stability (Arbitrary units) Rat 24 h” value turned out to be 0 Arbitrary units.

Turning to `CCCC[C@H](NC(=O)[C@@H]1Cc2ccccc2CN1C(=O)[C@@H](NC(=O)[C@H](CC1CCCCC1)NC(C)=O)C1CCN(C(=N)N)CC1)C(=O)NCCc1ccccc1` [Compound P69, Ac-Cha-Gpg-Tic-Nle-N(H)CH2CH2Ph] (Ac-[Cha][Gly(1-amidinopiperidin-4-yl)][Tic][Nle]-NHPhenethyl), the IC50 in data set [1] came out at 11 µM. Further, the “Stability (Arbitrary units) Cath D 4 h” value in data set [2] is on record as 100 Arbitrary units. Also, in data set [3], the “Stability (Arbitrary units) Mouse 6 h” value turned out to be 115 Arbitrary units and the “Stability (Arbitrary units) Mouse 24 h” value stood at 85 Arbitrary units. The IC50 in data set [4] is 6.2 µM and 8.2 µM. Further, in data set [5], the “Stability (Arbitrary units) Human 6 h” value was determined as 105 Arbitrary units and the “Stability (Arbitrary units) Human 24 h” value stood at 93 Arbitrary units. Besides, in data set [6], the “Stability (Arbitrary units) Rat 6 h” value is listed as 41 Arbitrary units and the “Stability (Arbitrary units) Rat 24 h” value was 42 Arbitrary units. In addition, the “stability (arbitrary units) in rat plasma” value in data set [6] (after 24 hours, compared to the Arg-containing equivalent) is listed as “improved stability”.

The values are drawn from US7629318B2, “Immunosuppressant compounds, methods and uses related thereto” (priority 2002, dated 2009).
